System: IL-1 β mediated PGE2 in HEPM monolayer cells
Test: IL-1β mediated PGE2 suppression, HEPM monolayer cell model
Assay type: cell-based
Conditions: cells treated with IL-1 β
From the text: IL-1 β Mediated PGE2 Suppression with Gymnema sylvestre Treatment (Cell Model)
PGE2, a marker of inflammation, can be increased via administration of IL-1 β. Samples are subjected to the HEPM monolayer cell model assay. […]

## Oc1cc(Cl)ccc1Oc1ccc(Cl)cc1Cl [Triclosan]
0.0005%
  PGE2: 715.9 pg/mL
0.001%
  PGE2: 520.9 pg/mL

Source: patent US20220362138A1, “Oral Care Compositions and Methods of Use” (Colgate-Palmolive Company, priority 2020, published 2022)
